One assay has as its target LRRK2 (Homo sapiens, UniProt Q5S007). Kind of assay: LRRK2-LRRK2 G2019S-Assay (LanthaScreen Eu Kinase Binding Assay). The settings on record: 5 nM LRRK2 or their mutants, 10 nM tracer 236, RT 1 h; read-out: LRRK2 Activities: IC50. A digest of the protocol:
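Kinase (wild type or mutant, 5 nM) mixed with Eu-anti-GST antibody (2 nM), then 10 nM Alexa Fluor 647 tracer 236 added. After 1 h at room temperature, the acceptor/donor (665/615 nm) FRET ratio was measured. IC50 was fitted from concentration–ratio curves.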
(In general: TR-FRET usually uses a lanthanide donor and a delayed reading to cut background.)

A further assay deals with T1, SYK kinase (Homo sapiens, UniProt P43405).
T1 construct: purchased Invitrogen, Carlsbad
Kind of assay: SYK Assay (OMNIA KINASE ASSAY, SOX peptide fluorescence). Format: biochemical. The settings on record: apparent Ki calculated from the IC50 using the Cheng-Prusoff equation; 1 mM ATP, 30° C.; read-out: SYK Activities: Ki. A digest of the protocol:
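Apparent Ki values are derived by Cheng-Prusoff from IC50s of sigmoidal fits of reaction rate against compound concentration. Rates come from chelation-enhanced SOX fluorescence (λex 360/λem 485 nm, read every 30 s over 30 min) as the kinase phosphorylates 10 µM Omnia Tyr 7 peptide at 30 °C, with 1 mM ATP and 0.2 mM DTT.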

Another assay concerns the target MYLK (Homo sapiens, UniProt Q15746). Kind of assay: MYLK Assay (LanthaScreen Eu Kinase Binding Assay). To be noted: 5 nM MYLK, 30 nM tracer 236, RT 1 h; read-out: MYLK Activities: IC50. The protocol:
In the assay LanthaScreen™ Eu Kinase Binding Assay by Invitrogen Corporation (Carlsbad) the effect of invention of a compound on the phosphorylation is determined by measurement of fluorescence intensity emission ratio based on the binding and displacement of a proprietary, Alexa Fluor® 647-labeled, ATP-competitive kinase inhibitor scaffold (kinase tracer) to the kinase of interest as described above.
To the wells of an 384 well small volume plate (Greiner, Frickenhausen) are added (i) the compound under test in 5% is DMSO/distilled water (5 μl), (ii) 5 μl of the kinase antibody mixture resulting in a final concentration 5 nM MYLK, 2 nM EU-Anti-GST antibody in 1× kinase buffer A. The reaction was started with addition of (iii) 5 μl resulting in a final concentration of 30 nM tracer 236. The assay plate was incubated at RT for 1 h and fluorescence intensity readings were collected using a TECAN M1000 at two wavelengths of λex 340/λem 615 nm and λex 340/λem 665 nm with a delay time of 100 μs and an integration time of 200 μs after 60 minutes. The emission ratio was calculated by division of the acceptor/tracer emission ([…]) by the antibody/donor emission ([…]). The inhibitor concentration was plotted versus the emission ratio to determine the IC50 using XLFit 5.0 (IDBS, Guildford) to fit to a sigmoidal dose response curve with a variable slope.

A value given as a limit tells only on which side of the number the result lay.

Chain of LRRK2 (Q5S007 970-2527 limits assumed): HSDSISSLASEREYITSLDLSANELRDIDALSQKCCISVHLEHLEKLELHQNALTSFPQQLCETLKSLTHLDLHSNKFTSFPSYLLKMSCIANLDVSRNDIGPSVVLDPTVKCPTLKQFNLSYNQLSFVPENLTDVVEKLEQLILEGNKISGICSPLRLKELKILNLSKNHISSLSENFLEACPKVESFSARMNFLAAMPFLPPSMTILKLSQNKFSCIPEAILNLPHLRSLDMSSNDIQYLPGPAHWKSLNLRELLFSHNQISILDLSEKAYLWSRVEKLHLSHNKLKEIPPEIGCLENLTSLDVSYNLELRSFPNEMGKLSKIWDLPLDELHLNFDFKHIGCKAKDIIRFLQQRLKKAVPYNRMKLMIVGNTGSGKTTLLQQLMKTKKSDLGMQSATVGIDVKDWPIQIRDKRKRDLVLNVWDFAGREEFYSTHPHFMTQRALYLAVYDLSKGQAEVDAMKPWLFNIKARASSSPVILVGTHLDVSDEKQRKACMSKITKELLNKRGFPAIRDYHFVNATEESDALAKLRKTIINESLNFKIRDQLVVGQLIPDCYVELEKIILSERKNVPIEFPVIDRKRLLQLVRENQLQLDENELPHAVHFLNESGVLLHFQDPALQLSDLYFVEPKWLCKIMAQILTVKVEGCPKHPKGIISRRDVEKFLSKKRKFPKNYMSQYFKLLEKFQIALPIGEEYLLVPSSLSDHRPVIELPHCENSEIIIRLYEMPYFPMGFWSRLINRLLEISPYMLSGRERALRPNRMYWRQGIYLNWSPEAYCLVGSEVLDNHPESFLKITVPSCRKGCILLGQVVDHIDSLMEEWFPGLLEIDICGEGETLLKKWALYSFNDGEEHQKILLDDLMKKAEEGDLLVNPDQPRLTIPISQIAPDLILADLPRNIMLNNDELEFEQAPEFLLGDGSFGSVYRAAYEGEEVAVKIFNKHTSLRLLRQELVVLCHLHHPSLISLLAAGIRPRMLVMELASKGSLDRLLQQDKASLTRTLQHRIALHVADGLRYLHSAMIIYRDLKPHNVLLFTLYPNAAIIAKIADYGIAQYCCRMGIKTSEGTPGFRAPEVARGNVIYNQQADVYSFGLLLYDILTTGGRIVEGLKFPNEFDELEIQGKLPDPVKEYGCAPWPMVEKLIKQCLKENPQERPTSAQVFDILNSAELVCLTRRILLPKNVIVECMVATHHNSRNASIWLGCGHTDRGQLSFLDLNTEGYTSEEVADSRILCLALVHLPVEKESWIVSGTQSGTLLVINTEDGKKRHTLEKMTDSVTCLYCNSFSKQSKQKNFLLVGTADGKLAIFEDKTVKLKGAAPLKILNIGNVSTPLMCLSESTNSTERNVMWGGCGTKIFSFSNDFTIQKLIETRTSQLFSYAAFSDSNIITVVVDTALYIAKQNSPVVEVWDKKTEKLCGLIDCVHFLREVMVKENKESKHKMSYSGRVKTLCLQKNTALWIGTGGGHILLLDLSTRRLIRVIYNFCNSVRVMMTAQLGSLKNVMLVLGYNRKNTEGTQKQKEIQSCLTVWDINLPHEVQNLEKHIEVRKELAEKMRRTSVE
Chain of MYLK (Q15746 whole entry): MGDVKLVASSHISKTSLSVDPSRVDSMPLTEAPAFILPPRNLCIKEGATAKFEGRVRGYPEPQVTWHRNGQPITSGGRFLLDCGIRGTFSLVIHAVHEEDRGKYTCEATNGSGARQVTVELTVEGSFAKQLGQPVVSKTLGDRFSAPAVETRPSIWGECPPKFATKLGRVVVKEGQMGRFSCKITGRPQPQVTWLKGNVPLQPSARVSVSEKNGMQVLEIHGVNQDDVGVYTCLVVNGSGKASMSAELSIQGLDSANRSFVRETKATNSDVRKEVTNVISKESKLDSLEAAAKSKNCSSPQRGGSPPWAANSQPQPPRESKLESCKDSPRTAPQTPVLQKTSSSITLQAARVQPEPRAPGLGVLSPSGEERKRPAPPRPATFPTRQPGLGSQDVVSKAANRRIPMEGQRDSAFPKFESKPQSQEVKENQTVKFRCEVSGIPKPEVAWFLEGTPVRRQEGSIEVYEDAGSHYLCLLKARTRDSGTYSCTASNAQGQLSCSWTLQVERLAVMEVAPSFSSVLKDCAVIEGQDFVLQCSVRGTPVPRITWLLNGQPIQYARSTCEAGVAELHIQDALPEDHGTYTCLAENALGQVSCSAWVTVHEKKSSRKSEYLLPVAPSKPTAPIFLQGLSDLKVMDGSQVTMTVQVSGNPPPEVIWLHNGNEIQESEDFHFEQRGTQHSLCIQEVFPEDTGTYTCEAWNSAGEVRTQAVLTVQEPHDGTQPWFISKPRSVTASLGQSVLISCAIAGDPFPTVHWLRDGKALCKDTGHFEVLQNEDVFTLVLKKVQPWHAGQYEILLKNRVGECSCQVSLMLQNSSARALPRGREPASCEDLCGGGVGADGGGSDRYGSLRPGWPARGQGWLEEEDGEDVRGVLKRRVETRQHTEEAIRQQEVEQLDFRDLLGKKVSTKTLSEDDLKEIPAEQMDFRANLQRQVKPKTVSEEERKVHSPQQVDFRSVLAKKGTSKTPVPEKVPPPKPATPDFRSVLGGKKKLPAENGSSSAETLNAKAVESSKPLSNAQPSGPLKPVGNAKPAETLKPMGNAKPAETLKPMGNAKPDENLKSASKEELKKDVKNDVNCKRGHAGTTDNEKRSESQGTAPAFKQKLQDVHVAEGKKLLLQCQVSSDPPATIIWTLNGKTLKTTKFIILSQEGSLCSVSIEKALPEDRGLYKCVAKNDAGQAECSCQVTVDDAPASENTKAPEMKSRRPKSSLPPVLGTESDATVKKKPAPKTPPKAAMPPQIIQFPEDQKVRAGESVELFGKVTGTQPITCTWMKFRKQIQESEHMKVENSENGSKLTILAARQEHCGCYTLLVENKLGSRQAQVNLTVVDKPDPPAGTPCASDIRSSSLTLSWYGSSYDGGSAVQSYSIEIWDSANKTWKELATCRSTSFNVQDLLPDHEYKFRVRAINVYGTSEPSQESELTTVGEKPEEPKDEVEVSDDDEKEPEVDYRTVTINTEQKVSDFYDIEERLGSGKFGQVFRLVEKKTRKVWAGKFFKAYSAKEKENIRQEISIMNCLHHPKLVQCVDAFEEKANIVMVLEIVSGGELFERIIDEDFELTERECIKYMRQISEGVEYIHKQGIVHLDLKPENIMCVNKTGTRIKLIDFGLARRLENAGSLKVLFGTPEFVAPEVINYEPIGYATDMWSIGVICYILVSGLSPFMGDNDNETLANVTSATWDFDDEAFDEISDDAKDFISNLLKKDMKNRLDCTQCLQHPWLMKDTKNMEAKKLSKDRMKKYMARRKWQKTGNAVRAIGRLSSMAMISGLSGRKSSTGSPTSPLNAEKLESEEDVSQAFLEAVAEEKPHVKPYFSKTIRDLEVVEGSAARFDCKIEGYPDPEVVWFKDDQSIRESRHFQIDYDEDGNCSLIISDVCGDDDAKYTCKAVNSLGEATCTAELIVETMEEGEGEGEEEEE

In general, IC50 refers to the midpoint of a concentration-inhibition curve. Take `NS(=O)(=O)c1cccc(-c2nc(Nc3ccc4c(c3)NC(=O)CC4)c3[nH]ncc3n2)c1` [Example #238, 3-(7-((2-oxo-1,2,3,4-tetrahydroquinolin-7-yl)amino)-1H-pyrazolo[4,3-d]pyrimidin-5-yl)benzenesulfonamide]: the 50% inhibitory concentration (IC50) on LRRK2 is 0.01 to 0.1 µM; on MYLK, less than 5 µM. The Ki at SYK kinase is less than 0.01 µM.
In the case of `CN1CCN(C2CCN(c3ccc(Nc4nc(-c5c(F)cccc5F)nc5cn[nH]c45)cc3)CC2)CC1` [Example #284, 5-(2,6-difluorophenyl)-N-(4-(4-(4-methylpiperazin-1-yl)piperidin-1-yl)phenyl)-1H-pyrazolo[4,3-d]pyrimidin-7-amine], the IC50 was 0.1 to 1 µM at LRRK2 and less than 5 µM at MYLK. The Ki on SYK kinase is 0.01 to 0.1 µM.
On to `O=C1COc2ccc(Nc3nc(-c4ccncc4)nc4cn[nH]c34)cc2N1` [Example #21, 6-((5-(pyridin-4-yl)-1H-pyrazolo[4,3-d]pyrimidin-7-yl)amino)-2H-benzo[b][1,4]oxazin-3(4H)-one], for which the 50% inhibitory concentration (IC50) was 0.1 to 1 µM at LRRK2 and less than 5 µM at MYLK. On SYK kinase, the Ki was 0.1 to 1 µM.
Regarding `COc1cccc(-c2nc(Nc3ccc(CN4CCCC4)cc3)c3[nH]ncc3n2)c1` [Example #132, 5-(3-methoxyphenyl)-N-(4-(pyrrolidin-1-ylmethyl)phenyl)-1H-pyrazolo[4,3-d]pyrimidin-7-amine], the half-maximal inhibitory concentration (IC50) at LRRK2 was 0.1 to 1 µM; at MYLK it was less than 5 µM. For the same compound, the Ki at SYK kinase was less than 0.01 µM.
For `CN1CCN(C(=O)c2ccc(Nc3nc(-c4ccsc4)nc4cn[nH]c34)cc2)CC1` [Example #147, (4-methylpiperazin-1-yl)(4-((5-(thiophen-3-yl)-1H-pyrazolo[4,3-d]pyrimidin-7-yl)amino)phenyl)methanone], in that order: 0.01 to 0.1 µM, less than 5 µM and 0.01 to 0.1 µM.
As for `Cc1nc2cc(Nc3nc(-c4cccc(S(C)(=O)=O)c4)nc4cn[nH]c34)ccc2[nH]1` [Example #252, N-(2-methyl-1H-benzo[d]imidazol-5-yl)-5-(3-(methylsulfonyl)phenyl)-1H-pyrazolo[4,3-d]pyrimidin-7-amine], the Ki on SYK kinase is 0.01 to 0.1 µM. Besides, on MYLK, the IC50 was less than 5 µM.
For `COc1ccc(-c2nc(Nc3ccc(C(=O)N4CCCC4)cc3)c3[nH]ncc3n2)cc1` [Example #160, (4-((5-(4-methoxyphenyl)-1H-pyrazolo[4,3-d]pyrimidin-7-yl)amino)phenyl)(pyrrolidin-1-yl)methanone], in that order: less than 0.01 µM and less than 5 µM.
For `CN1CCN(c2ccc(Nc3nc(-c4cc(C(=O)O)cs4)nc4cn[nH]c34)cc2)CC1` [Example #175, 5-(7-((4-(4-methylpiperazin-1-yl)phenyl)amino)-1H-pyrazolo[4,3-d]pyrimidin-5-yl)thiophene-3-carboxylic acid], in that order: less than 0.01 µM and less than 5 µM.
As for `Nc1cccc(Nc2nc(-c3ccsc3)nc3cn[nH]c23)c1` [Example #117, N1-(5-(thiophen-3-yl)-1H-pyrazolo[4,3-d]pyrimidin-7-yl)benzene-1,3-diamine], the concentration for half-maximal inhibition (IC50) was 0.01 to 0.1 µM on LRRK2 and less than 5 µM at MYLK. On SYK kinase, the Ki was less than 0.01 µM.
For `CN1CCN(c2ccc(Nc3nc(-c4ccncc4)nc4cn[nH]c34)cc2)CC1` [Example #20, N-(4-(4-methylpiperazin-1-yl)phenyl)-5-(pyridin-4-yl)-1H-pyrazolo[4,3-d]pyrimidin-7-amine], in that order: 0.1 to 1 µM, less than 5 µM and less than 0.01 µM.
For `COc1ccc(-c2nc(Nc3ccc(N4CCN(C(C)(C)C)CC4)cc3)c3[nH]ncc3n2)cc1` [Example #172, N-(4-(4-(tert-butyl)piperazin-1-yl)phenyl)-5-(4-methoxyphenyl)-1H-pyrazolo[4,3-d]pyrimidin-7-amine], in that order: 0.1 to 1 µM, less than 5 µM and less than 0.01 µM.
For `CC(C)(C)N1CCN(c2ccc(Nc3nc(-c4cccs4)nc4cn[nH]c34)cc2)CC1` [Example #163, N-(4-(4-(tert-butyl)piperazin-1-yl)phenyl)-5-(thiophen-2-yl)-1H-pyrazolo[4,3-d]pyrimidin-7-amine], in that order: 0.1 to 1 µM, less than 5 µM and less than 0.01 µM.
Take `CN1CCN(C(=O)c2ccc(Nc3nc(-c4cccs4)nc4cn[nH]c34)cc2)CC1` [Example #134, (4-methylpiperazin-1-yl)(4-((5-(thiophen-2-yl)-1H-pyrazolo[4,3-d]pyrimidin-7-yl)amino)phenyl)methanone]: the figures for the IC50 at LRRK2 and at MYLK were 0.1 to 1 µM and less than 5 µM, respectively. Moreover, the Ki at SYK kinase is less than 0.01 µM.
For `CN1CCN(c2ccc(Nc3nc(-c4ccccc4)nc4cn[nH]c34)cc2)CC1` [Example #35, N-(4-(4-methylpiperazin-1-yl)phenyl)-5-phenyl-1H-pyrazolo[4,3-d]pyrimidin-7-amine], in that order: 0.1 to 1 µM, less than 5 µM and less than 0.01 µM.
In the case of `CN1CCN(c2ccc(Nc3nc(-c4ccsc4)nc4cn[nH]c34)cn2)CC1` [Example #118, N-(6-(4-methylpiperazin-1-yl)pyridin-3-yl)-5-(thiophen-3-yl)-1H-pyrazolo[4,3-d]pyrimidin-7-amine], the IC50 was 0.01 to 0.1 µM on LRRK2 and less than 5 µM at MYLK. The Ki on SYK kinase is less than 0.01 µM.
For `CS(=O)(=O)c1ccccc1Nc1nc(-c2ccccc2F)nc2cn[nH]c12` [Example #277, 5-(2-fluorophenyl)-N-(2-(methylsulfonyl)phenyl)-1H-pyrazolo[4,3-d]pyrimidin-7-amine], the Ki on SYK kinase was 0.1 to 1 µM. The IC50 at MYLK was less than 5 µM.
Turning to `COc1cccc(Nc2nc(-c3ccccc3)nc3cn[nH]c23)c1` [Example #8, N-(3-methoxyphenyl)-5-phenyl-1H-pyrazolo[4,3-d]pyrimidin-7-amine], the Ki on SYK kinase was 0.01 to 0.1 µM. The half-maximal inhibitory concentration (IC50) at MYLK is less than 5 µM.
On the same counts, the results for `c1ccc(-c2nc(Nc3cc(C4CC4)[nH]n3)c3[nH]ncc3n2)cc1` [Example #57, N-(5-cyclopropyl-1H-pyrazol-3-yl)-5-phenyl-1H-pyrazolo[4,3-d]pyrimidin-7-amine] are 0.01 to 0.1 µM and less than 5 µM.
On the same counts, the results for `c1cc(Nc2nc(-c3cc[nH]n3)nc3cn[nH]c23)n[nH]1` [Example #45, N,5-di(1H-pyrazol-3-yl)-1H-pyrazolo[4,3-d]pyrimidin-7-amine] are 0.1 to 1 µM and less than 5 µM.
For `Fc1ccc(-c2nc(Nc3ccc(N4CCOCC4)cc3)c3[nH]ncc3n2)c(F)c1` [Example #286, 5-(2,4-difluorophenyl)-N-(4-morpholinophenyl)-1H-pyrazolo[4,3-d]pyrimidin-7-amine], in that order: 0.01 to 0.1 µM and less than 5 µM.
On to `O=S(=O)(CCO)c1cccc(Nc2nc(-c3cccs3)nc3cn[nH]c23)c1` [Example #255, 2-((3-((5-(thiophen-2-yl)-1H-pyrazolo[4,3-d]pyrimidin-7-yl)amino)phenyl)sulfonyl)ethan-1-ol], for which the Ki at SYK kinase was 0.1 to 1 µM. Also, at MYLK, the 50% inhibitory concentration (IC50) is less than 5 µM.
On the same counts, the results for `CS(=O)(=O)c1cccc(Nc2nc(-c3ccccc3F)nc3cn[nH]c23)c1` [Example #276, 5-(2-fluorophenyl)-N-(3-(methylsulfonyl)phenyl)-1H-pyrazolo[4,3-d]pyrimidin-7-amine] are 0.01 to 0.1 µM and less than 5 µM.
On the same counts, the results for `CN1CCN(c2ccc(Nc3nc(-c4ccc(C(=O)O)cc4)nc4cn[nH]c34)cc2)CC1` [Example #241, 4-(7-((4-(4-methylpiperazin-1-yl)phenyl)amino)-1H-pyrazolo[4,3-d]pyrimidin-5-yl)benzoic acid] are less than 0.01 µM and less than 5 µM.
On the same counts, the results for `O=C1COc2ccc(-c3nc(Nc4ccc(N5CCOCC5)cc4)c4[nH]ncc4n3)cc2N1` [Example #288, 6-(7-((4-morpholinophenyl)amino)-1H-pyrazolo[4,3-d]pyrimidin-5-yl)-2H-benzo[b][1,4]oxazin-3(4H)-one] are 0.01 to 0.1 µM and less than 5 µM.
Take `Cc1nc2cc(Nc3nc(-c4ccc5c(c4)NC(=O)CO5)nc4cn[nH]c34)ccc2[nH]1` [Example #289, 6-(7-((2-methyl-1H-benzo[d]imidazol-5-yl)amino)-1H-pyrazolo[4,3-d]pyrimidin-5-yl)-2H-benzo[b][1,4]oxazin-3(4H)-one]: the Ki at SYK kinase was 0.01 to 0.1 µM. Moreover, the concentration for half-maximal inhibition (IC50) at MYLK was less than 5 µM.

These data come from US9802937B2, “Substituted pyrazolo{4,3-D}pyrimidines as kinase inhibitors” (ORIGENIS GMBH, priority 2011, dated 2017).
